{"source": "patent US20250144055A1", "about": "“METHOD AND COMPOSITION FOR REDUCING MYOPIA PROGRESSION” (THE HONG KONG POLYTECHNIC UNIVERSITY, priority 2023, published 2025)", "key": {"[1]": {"tested_on": "lens-induced myopia (LIM) chicks", "test": "unilateral lens-induced myopia (LIM) chick model, intravitreal injection", "assay_type": "in vivo, White Leghorn chicks (Gallus gallus)", "experimental": "To create a lens-induced myopia (LIM) animal model, concave lenses of −5 D were applied to the White Leghorn chicks (Gallus gallus), hatched from specific pathogen-free eggs (SPF, Jinan, China), until they were ten days old (PN10, baseline). All the animals were raised in standard cages at 25° C. with sufficient food and water daily under the 12 h:12 h light/dark cycle. The central ambient luminance over the cages was maintained at around 260 lux.\nTurning to FIG. 1, starting from ten days old (PN10), the LIM chicks received four intravitreal injections in four consecutive days, i.e., PN10, PN11, PN12 and PN13 (s101). LIM chicks were randomly assigned to two groups, including LIM chicks (n=6) with vehicle injection (1% DMSO with 1% β-CDs) (101b) and LIM chicks (n=7) with celastrol injection (74 μM celastrol dissolved in 1% DMSO with 1% β-CDs) (101a), and no gender preference was selected in the experimental groupings. β-CDs were selected as a drug carrier of celastrol because of its doughnut-shaped cavities with hydrophilic outer and hydrophobic inner surfaces to form a complex with the celastrol to enhance the solubility, stability and permeation of celastrol in vivo. The freshly prepared solution (10 μl) was injected monocularly with a 0.3-mL syringe (31-gauge needle, BD Medical, Le Pont deClaix, France) into the vitreous through the sclera, choroid, and retina close to the margin of the upper orbit. Immediately following the first injection on PN10, the LIM chicks' right (or left) eyes were assigned to −5 D lenses (treated eyes 102a), and no lens was attached to the fellow eyes (control eyes 102b) (s102). The treated eyes 102a covered with lens in each LIM chick (unilateral LIM) received the subsequent celastrol injection 101a or vehicle 101b on PN11, PN12 and PN13, whereas there was no treatment for the contralateral (control) eye 102b.\nAfter 7-day LIM (PN17), the lenses were removed for 2 hours (s103). The refractive error and ocular parameters were recorded separately at baseline (PN10), 7-day LIM (PN17), and after 2-hour recovery (PN17+2 hr) using the steak retinoscopy and high-frequency ultrasonography (s104). Refractive errors were detected using a streak retinoscope, and ocular parameters were measured using a high-frequency A-scan ultrasound system with a 30 MHz transducer (Panametrics, Inc., Waltham, MA), respectively, before and after treatments. The spherical equivalent (S.E.) was calculated from the refractive status (S.E.=spherical power+½ cylindrical power). Axial length (AL) was defined from the front of the cornea to the back of the vitreous chamber.\nBiometric data obtained from unilateral LIM chicks treated with or without celastrol according to the scheme depicted in Example 1 and FIG. 1 were analyzed. First of all, after the 7-day lens treatment period (PN1, the interocular differences (differences between the lens-treated eyes and the contralateral fellow eyes) were calculated for the three ocular parameters (refractive error, vitreous chamber depth, and axial length), and the results are shown in FIGS. 2A-2C, respectively. Because choroid thickness change is believed to be an indicator of progression to myopia, the choroidal thickness was also measured after a 2-hour recovery, and the results are shown in FIG. 2D. The mean interocular differences and choroidal thickness changes are presented with ±SD. The significance between celastrol and vehicle groups was analyzed using an unpaired t-test with equal variance."}, "[2]": {"tested_on": "retinal ganglion cells (RGCs)", "details": "cited from earlier work"}, "[3]": {"test": "body weight of unilateral LIM chicks after 7-day LIM", "assay_type": "in vivo, White Leghorn chicks (Gallus gallus)", "details": "after 7-day LIM (PN17), 74 μM intravitreal x4 days", "description": "The present disclosure provides a method for reducing myopia progression by administering a therapeutically effective amount of celastrol via intravitreal injection to a vitreous or via a non-invasive route, such as topically to the eye, e.g., as an eye drop containing a therapeutically effective amount of celastrol administered to a cornea or conjunctiva of a subject's eye. […] Change of body weight before and after 7-day LIM and choroidal thickness of a uvea of the celastrol group after 2-hr removal of the lens from the unilateral LIM chicks following the 7-day LIM were also quantified to show no adverse side effect but an increase in choroidal thickness induced by a low-dose celastrol. […] For instance, if celastrol is administered via the intravitreal injection, based on the difference in vitreous volume between the animal model tested and the human being, the human equivalent dose of celastrol could be determined. Taking chicken's vitreous volume as an illustrative example, if the celastrol is administered at about 74 μM via intravitreal injection to the chicken's vitreous, assuming that the vitreous volume of a chicken in general is about 200 μl, based on an estimated human vitreous volume (about 4.5 ml), the human equivalent dose of celastrol via intravitreal injection is determined to be about 1.665 mM. […]"}, "[4]": {"tested_on": "neuroendocrine chromaffin cells", "details": "1 μM celastrol; cited from earlier work"}}, "note": "Values joined by “and” are separate entries in the source; they are usually repeats but may differ in a detail not shown here. Equal entries are not always repeated. Where two headings read alike, the source gives them in different places.", "data": [{"smiles": "CC1=C(O)C(=O)C=C2C1=CC=C1[C@@]2(C)CC[C@@]2(C)[C@@H]3C[C@](C)(C(=O)O)CC[C@]3(C)CC[C@]12C", "note": "[celastrol]", "values": [{"measurement": "interocular difference in refractive error (spherical equivalent), mean±SD", "setting": "[1]; 74 μM celastrol, 10 μl intravitreal q.d. PN10-PN13, after 7-day LIM (PN17), lens-treated minus fellow eye, n=7", "value": "−1.68±2.03", "unit": "D"}, {"measurement": "choroidal thickness change, mean±SD", "setting": "[1]; 74 μM intravitreal x4 days, after 2-hour recovery from 7-day LIM (PN17+2 hr), P=0.072 vs vehicle", "value": "65.98±20.89", "unit": "μm"}, {"measurement": "interocular difference in axial length (AL), mean±SD", "setting": "[1]; 74 μM intravitreal x4 days, after 7-day LIM (PN17), A-scan, P=0.054 vs vehicle", "value": "0.088±0.109", "unit": "mm"}, {"measurement": "interocular difference in vitreous chamber depth (VCD), mean±SD", "setting": "[1]; 74 μM intravitreal x4 days, after 7-day LIM (PN17), A-scan, n=7", "value": "0.190±0.105", "unit": "mm"}, {"measurement": "inhibition at 74 µM", "setting": "[1]; Gallus gallus, 168 h, celastrol group vs vehicle group, 74 μM intravitreal, 7-day LIM, read-out: inhibition of myopia based on refractive error data", "value": "~46.3", "unit": "%"}, {"measurement": "averaged shift of relative myopia in interocular difference, vehicle group versus celastrol group (mean)", "setting": "[1]; after 7-day LIM (PN17)", "value": "−1.45", "unit": "D"}, {"measurement": "enlargement of VCD in vehicle group compared with celastrol group", "setting": "[1]; after 7-day LIM (PN17), P>0.05", "value": 0.070, "unit": "mm"}, {"measurement": "numerical elongation of AL in vehicle group compared with celastrol group (mean)", "setting": "[1]; after 7-day LIM (PN17), P>0.05", "value": 0.174, "unit": "mm"}, {"measurement": "inhibition of myopia based on axial length data", "setting": "[1]; celastrol group vs vehicle group, 74 μM intravitreal, 7-day LIM", "value": "~66.4% and ~46.2%"}, {"measurement": "myopia progression", "setting": "[1]; intravitreal injection at the dose tested (74 μM)", "value": "could suppress myopia progression"}, {"measurement": "increase in average number of retinal ganglion cells (RGCs) compared to controls", "setting": "[2]; injection of 1 mg/kg celastrol", "value": "approximately 80%"}, {"measurement": "increase in average number of retinal ganglion cells (RGCs) compared to controls", "setting": "[2]; injection of 5 mg/kg celastrol", "value": "~78", "unit": "%"}, {"measurement": "body weight compared with vehicle group", "setting": "[3]", "value": "no retardation of growth regarding body weight"}, {"measurement": "increase in dopamine", "setting": "[4]", "value": 6, "unit": "fold"}]}]}
